Results reported in patent US7420056B2, “Substituted bicyclic imidazo-3-ylamine compounds” (Gruenenthal GmbH, priority 2004, dated 2008).
Counter-ions that a name gives are not always drawn.

Each molecule was assayed against mGluR5 receptor (Sus scrofa, UniProt I3LUI7) (assay: Affinity for the mGluR5 receptor: inhibition of 3[H]-MPEP binding in pig brain homogenate). Conditions: 10 μM compound, 5 nM 3[H]-MPEP, read-out: mGluR5 receptor inhibition of ^3[H]-MPEP binding [10 μM] in % at a concentration of the example compounds of 10 μM.
mGluR5 receptor, sequence (I3LUI7 19-1212): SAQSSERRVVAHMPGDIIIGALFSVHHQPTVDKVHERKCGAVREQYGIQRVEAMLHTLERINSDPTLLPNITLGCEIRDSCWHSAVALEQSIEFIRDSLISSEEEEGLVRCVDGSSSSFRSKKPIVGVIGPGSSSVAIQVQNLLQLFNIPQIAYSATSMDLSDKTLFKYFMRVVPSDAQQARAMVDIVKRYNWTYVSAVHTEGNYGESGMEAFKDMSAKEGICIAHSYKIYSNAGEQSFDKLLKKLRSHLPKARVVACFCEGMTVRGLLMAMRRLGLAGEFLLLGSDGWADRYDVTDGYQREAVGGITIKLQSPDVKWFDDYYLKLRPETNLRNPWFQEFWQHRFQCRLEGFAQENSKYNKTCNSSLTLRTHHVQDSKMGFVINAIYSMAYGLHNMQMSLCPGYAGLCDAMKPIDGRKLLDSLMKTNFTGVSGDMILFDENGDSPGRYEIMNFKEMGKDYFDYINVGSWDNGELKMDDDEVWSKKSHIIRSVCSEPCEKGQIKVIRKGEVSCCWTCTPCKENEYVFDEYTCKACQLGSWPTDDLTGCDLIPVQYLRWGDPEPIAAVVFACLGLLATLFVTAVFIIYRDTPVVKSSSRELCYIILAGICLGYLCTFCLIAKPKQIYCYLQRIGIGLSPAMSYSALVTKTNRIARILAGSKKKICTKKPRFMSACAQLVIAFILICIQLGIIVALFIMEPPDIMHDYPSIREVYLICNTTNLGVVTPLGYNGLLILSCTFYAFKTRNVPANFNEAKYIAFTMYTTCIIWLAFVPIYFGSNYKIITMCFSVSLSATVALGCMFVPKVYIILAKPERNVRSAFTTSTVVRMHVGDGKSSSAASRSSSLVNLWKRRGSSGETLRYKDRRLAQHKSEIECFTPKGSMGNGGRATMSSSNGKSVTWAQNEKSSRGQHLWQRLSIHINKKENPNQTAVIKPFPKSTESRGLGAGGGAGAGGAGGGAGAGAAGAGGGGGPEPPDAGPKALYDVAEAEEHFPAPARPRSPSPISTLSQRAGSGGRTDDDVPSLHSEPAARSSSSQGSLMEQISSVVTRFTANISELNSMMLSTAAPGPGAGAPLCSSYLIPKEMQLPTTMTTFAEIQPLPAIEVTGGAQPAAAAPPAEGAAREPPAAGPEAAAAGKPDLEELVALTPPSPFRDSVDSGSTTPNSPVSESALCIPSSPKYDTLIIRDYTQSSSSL
In short: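 Test compounds were screened at 10 μM for displacement of 5 nM [3H]-MPEP from pig brain homogenate (450 μg protein, pH 8.0 Hepes buffer) over 60 min at room temperature. After filtration, scintillation counting gave the read-out. 10 μM unlabelled MPEP set nonspecific binding.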
An inhibition at 10 µM of 66% was found for CC(C)(C)CC(C)(C)Nc1c(-c2cccc(C#Cc3ccccn3)c2)nc2c(Cl)cc(C(F)(F)F)cn12 [Example 103, 8-chloro-2-(3-(pyridin-2-ylethynyl)phenyl)-6-(trifluoromethyl)-N-(2,4,4-trimethylpentan-2-yl)imidazo[1,2-a]pyridin-3-amine] in this work.
An inhibition at 10 µM of 89% was found for Cc1ccn2c(NCc3ccc(F)cc3)c(-c3ccc(C#Cc4ccccc4)s3)nc2c1 [Example 51, (4-fluoro-benzyl)-[7-methyl-2-(5-phenylethynyl-thiophen-2-yl)-imidazo[1,2-a]pyridin-3-yl]-amine] in this work.
An inhibition at 10 µM of 82% was found for Cc1cccc(C#Cc2cccc(-c3nc4cc(C(C)C)ccn4c3NC(C)(C)C)c2)n1 [Example 309, N-tert-butyl-7-isopropyl-2-(3-((6-methylpyridin-2-yl)ethynyl)phenyl)imidazo[1,2-a]pyridin-3-amine] in this work.
An inhibition at 10 µM of 84% was found for COc1cccc(CNc2c(-c3ccc(C#Cc4ccccc4)s3)nc3c(C)cccn23)c1 [Example 22, (3-methoxy-benzyl)-[8-methyl-2-(5-phenylethynyl-thiophen-2-yl)-imidazo[1,2-a]pyridin-3-yl]-amine] in this work.
An inhibition at 10 µM of 65% was found for CC(C)(C)CC(C)(C)Nc1c(-c2ccc(C#Cc3ccccn3)cc2)nc2c(Cl)cc(C(F)(F)F)cn12 [Example 241, 8-chloro-2-(4-(pyridin-2-ylethynyl)phenyl)-6-(trifluoromethyl)-N-(2,4,4-trimethylpentan-2-yl)imidazo[1,2-a]pyridin-3-amine] in this work.
An inhibition at 10 µM of 68% was found for Cc1cc(Br)c2nc(-c3cccc(C#Cc4cccc(C)n4)c3)c(NC(C)(C)CC(C)(C)C)n2c1 [Example 210, 8-bromo-6-methyl-2-(3-((6-methylpyridin-2-yl)ethynyl)phenyl)-N-(2,4,4-trimethylpentan-2-yl)imidazo[1,2-a]pyridin-3-amine] in this work.
An inhibition at 10 µM of 40% was found for Fc1ccc(CNc2c(-c3ccc(C#Cc4ccccc4)o3)nc3ccc(Cl)cn23)cc1 [Example 221, 6-chloro-N-(4-fluorobenzyl)-2-(5-(phenylethynyl)furan-2-yl)imidazo[1,2-a]pyridin-3-amine] in this work.
An inhibition at 10 µM of 80% was found for Cc1cccn2c(NC3CCCCC3)c(-c3ccc(C#Cc4ccccn4)cc3)nc12 [Example 297, N-cyclohexyl-8-methyl-2-(4-(pyridin-2-ylethynyl)phenyl)imidazo[1,2-a]pyridin-3-amine] in this work.
An inhibition at 10 µM of 98% was found for Cc1cc(C)n2c(NCc3ccccc3Cl)c(-c3ccc(C#Cc4ccccc4)s3)nc2c1 [Example 32, (2-chloro-benzyl)-[5,7-dimethyl-2-(5-phenylethynyl-thiophen-2-yl)-imidazo[1,2-a]pyridin-3-yl]-amine] in this work.
An inhibition at 10 µM of 55% was found for C(#Cc1csc(-c2nc3cnccn3c2NCCc2ccccc2)c1)c1ccccc1 [Example 201, N-phenethyl-2-(4-(phenylethynyl)thiophen-2-yl)imidazo[1,2-a]pyrazin-3-amine] in this work.
An inhibition at 10 µM of 66% was found for CCCC(C)(C)Nc1c(-c2ccc(C#Cc3ccccc3)s2)nc2c(Br)cc(Br)cn12 [Example 236, 6,8-dibromo-N-(2-methylpentan-2-yl)-2-(5-(phenylethynyl)thiophen-2-yl)imidazo[1,2-a]pyridin-3-amine] in this work.
An inhibition at 10 µM of 75% was found for Cc1ccc2nc(-c3ccc(C#Cc4ccccn4)s3)c(NC(C)(C)C)n2c1 [Example 268, N-tert-butyl-6-methyl-2-(5-(pyridin-2-ylethynyl)thiophen-2-yl)imidazo[1,2-a]pyridin-3-amine] in this work.
An inhibition at 10 µM of 50% was found for CCc1ccn2c(NC3CCCCC3)c(-c3cccc(C#Cc4ccccn4)c3)nc2c1 [Example 300, N-cyclohexyl-7-ethyl-2-(3-(pyridin-2-ylethynyl)phenyl)imidazo[1,2-a]pyridin-3-amine] in this work.
An inhibition at 10 µM of 84% was found for CC(Nc1c(-c2cc(C#Cc3ccccc3)cs2)nc2cnccn12)c1ccccc1 (stereo not drawn) [Example 213, N-(1-phenylethyl)-2-(4-(phenylethynyl)thiophen-2-yl)imidazo[1,2-a]pyrazin-3-amine] in this work.
An inhibition at 10 µM of 35% was found for COc1ccccc1CNc1c(-c2ccc(C#Cc3ccccc3)o2)nc2cnccn12 [Example 207, N-(2-methoxybenzyl)-2-(5-(phenylethynyl)furan-2-yl)imidazo[1,2-a]pyrazin-3-amine] in this work.
An inhibition at 10 µM of 84% was found for Cc1cc(C)n2c(NC(C)(C)C)c(-c3ccc(C#Cc4ccccn4)o3)nc2n1 [Example 295, N-tert-butyl-5,7-dimethyl-2-(5-(pyridin-2-ylethynyl)furan-2-yl)imidazo[1,2-a]pyrimidin-3-amine] in this work.
An inhibition at 10 µM of 31% was found for Cc1cccn2c(NC3CCCCC3)c(-c3ccc(C#Cc4ccccc4)nc3)nc12 [Example 280, N-cyclohexyl-8-methyl-2-(6-(phenylethynyl)pyridin-3-yl)imidazo[1,2-a]pyridin-3-amine] in this work.
An inhibition at 10 µM of 98% was found for Fc1ccc(Nc2c(-c3ccc(C#Cc4ccccc4)s3)nc3cc(-c4ccccc4)ccn23)cc1Cl [Example 33, (3-chloro-4-fluoro-phenyl)-[7-phenyl-2-(5-phenylethynyl-thiophen-2-yl)-imidazo[1,2-a]pyridin-3-yl]-amine] in this work.
An inhibition at 10 µM of 31% was found for COc1cccc(CCNc2c(-c3ccc(C#Cc4ccccc4)o3)nc3nc(C)cc(C)n23)c1 [Example 197, N-(3-methoxyphenethyl)-5,7-dimethyl-2-(5-(phenylethynyl)furan-2-yl)imidazo[1,2-a]pyrimidin-3-amine] in this work.
An inhibition at 10 µM of 44% was found for Cc1cc(C#Cc2ccc(-c3nc4ccccn4c3NC(C)(C)C)s2)ccc1F [Example 348, N-tert-butyl-2-(5-((4-fluoro-3-methylphenyl)ethynyl)thiophen-2-yl)imidazo[1,2-a]pyridin-3-amine hydrochloride] in this work.

Same assay, conditions: 3[H]-MPEP binding
An IC50 of 39 nM was found for CC(C)(C)Nc1c(-c2ccc(C#Cc3ncccc3N)s2)nc2ccccn12 [Example 326, {2-[5-(3-amino-pyridin-2-ylethynyl)-thiophen-2-yl]-imidazo[1,2-a]pyridin-3-yl}-tert-butyl-amine] in this work.
An IC50 of 1550 nM was found for CN(C)c1cccc(C#Cc2ccc(-c3nc4cnccn4c3NC(C)(C)C)s2)c1 [Example 157, N-tert-butyl-2-(5-((3-(dimethylamino)phenyl)ethynyl)thiophen-2-yl)imidazo[1,2-a]pyrazin-3-amine hydrochloride] in this work.
An IC50 of 320 nM was found for Cc1ccc(C#Cc2ccc(-c3nc4ccccn4c3NC(C)(C)C)s2)nc1 [Example 339, tert-butyl-{2-[5-(5-methyl-pyridin-2-ylethynyl)-thiophen-2-yl]-imidazo[1,2-a]pyridin-3-yl}-amine hydrochloride] in this work.
An IC50 of 26 nM was found for CC(C)(C)Nc1c(-c2ccc(C#Cc3cc(C#N)ccc3F)s2)nc2cnccn12 [Example 179, 3-((5-(3-(tert-butylamino)imidazo[1,2-a]pyrazin-2-yl)thiophen-2-yl)ethynyl)-4-fluorobenzonitrile] in this work.
An IC50 of 16 nM was found for CC(C)(C)Nc1c(-c2ccc(C#Cc3ccncc3)s2)nc2ccccn12 [Example 132, N-tert-butyl-2-(5-(pyridin-4-ylethynyl)thiophen-2-yl)imidazo[1,2-a]pyridin-3-amine hydrochloride] in this work.
An IC50 of 590 nM was found for Cc1cccn2c(NC(C)(C)C)c(-c3ccc(C#Cc4ccccc4)s3)nc12 [Example 97, N-tert-butyl-8-methyl-2-(5-(phenylethynyl)thiophen-2-yl)imidazo[1,2-a]pyridin-3-amine] in this work.
An IC50 of 37 nM was found for Cc1ccnc(C#Cc2ccc(-c3nc4cnccn4c3NC(C)(C)C)s2)c1 [Example 130, N-tert-butyl-2-(5-((4-methylpyridin-2-yl)ethynyl)thiophen-2-yl)imidazo[1,2-a]pyrazin-3-amine hydrochloride] in this work.
An IC50 of 640 nM was found for COc1cccc(C#Cc2ccc(-c3nc4cnccn4c3NC(C)(C)C)s2)n1 [Example 168, N-tert-butyl-2-(5-((6-methoxypyridin-2-yl)ethynyl)thiophen-2-yl)imidazo[1,2-a]pyrazin-3-amine] in this work.
An IC50 of 2930 nM was found for CCCNc1c(-c2ccc(C#Cc3ccccc3)s2)nc2cnccn12 [Example 69, propyl-[2-(5-phenylethynyl-thiophen-2-yl)-imidazo[1,2-a]pyrazin-3-yl]-amine] in this work.
An IC50 of 33 nM was found for Cc1cccc(C#Cc2ccc(-c3nc4cnccn4c3NC(C)(C)C)s2)n1 [Example 158, N-tert-butyl-2-(5-((6-methylpyridin-2-yl)ethynyl)thiophen-2-yl)imidazo[1,2-a]pyrazin-3-amine hydrochloride] in this work.
An IC50 of 270 nM was found for C=Cc1cccc(C#Cc2ccc(-c3nc4cnccn4c3NC(C)(C)C)s2)c1 [Example 184, N-tert-butyl-2-(5-((3-vinylphenyl)ethynyl)thiophen-2-yl)imidazo[1,2-a]pyrazin-3-amine] in this work.
An IC50 of 920 nM was found for CC(C)(C)Nc1c(-c2ccc(C#Cc3cccc(N)c3)s2)nc2ccccn12 [Example 347, 2-(5-((3-aminophenyl)ethynyl)thiophen-2-yl)-N-tert-butylimidazo[1,2-a]pyridin-3-amine hydrochloride] in this work.
An IC50 of 3840 nM was found for CN(C)c1c(-c2ccc(C#Cc3ccccc3)s2)nc2cnccn12 [Example 65, dimethyl-[2-(5-phenylethynyl-thiophen-2-yl)-imidazo[1,2-a]pyrazin-3-yl]-amine] in this work.
An IC50 of 15600 nM was found for CC(C)(C)Nc1c(-c2ccc(C#Cc3ccc(N)nc3)s2)nc2cnccn12 [Example 128, 2-(5-((6-aminopyridin-3-yl)ethynyl)thiophen-2-yl)-N-tert-butylimidazo[1,2-a]pyrazin-3-amine hydrochloride] in this work.
An IC50 of 190 nM was found for CC(C)(C)Nc1c(-c2ccc(C#Cc3c[nH]cn3)s2)nc2cnccn12 [Example 185, 2-(5-((1H-imidazol-4-yl)ethynyl)thiophen-2-yl)-N-tert-butylimidazo[1,2-a]pyrazin-3-amine hydrochloride] in this work.
An IC50 of 3.2 nM was found for CN(c1c(-c2ccc(C#Cc3ccccn3)s2)nc2cnccn12)C(C)(C)C [Example 143, N-tert-butyl-N-methyl-2-(5-(pyridin-2-ylethynyl)thiophen-2-yl)imidazo[1,2-a]pyrazin-3-amine] in this work.
